# Measured values from patent publication US20080260716A1, “Method and Composition for High Level Disinfection Employing Quaternary Ammonium Compounds” (priority 2004, published 2008).
# Where two headings read alike, the source gives them in different places.
# What was measured:
# C. sporogens spores = experiment: AOAC sporicidal test, kill time; type: cell-based; settings: for C. sporogens (no kill): 48 hrs
# [1] = tested on: Mycobacterium terrae, B. subtilis, C. sporogens; parameters: key: satisfies the FDA requirement for high level disinfection (“HLD”); fails to do so (“F”)
# [2] = Table 3 Prior art, 0.25% QUAT, 25° C.
# [3] = Table 6 unnumbered test, 2% QUAT + 0.2% Protease (Savinase 16 L), 25° C. + 1% borax
# [4] = test 3.4, 0.25% QUAT, 62° C. + ultrasound
# [5] = test 4.1, 2% QUAT, 25° C. + 1% borax
# [6] = test 4.2, 5% QUAT, 25° C. + 1% borax
# [7] = test 4.3, 1% QUAT, 40° C. + 1% borax
# [8] = test 4.4, 2% QUAT, 40° C. + 1% borax
# [9] = test 4.5, 5% QUAT, 40° C. + 1% borax
# [10] = test 4.6, 2% QUAT, 50° C. + 1% borax
# [11] = test 4.7, 5% QUAT, 50° C. + 1% borax
# [12] = test 5.2, 2% QUAT, 40° C. + ultrasound 10 min each hour
# [13] = test 5.3, 5% QUAT, 40° C. + ultrasound 10 min each hour
# [14] = test 5.4, 1% QUAT, 40° C. + ultrasound 10 min each hour
# [15] = test 5.5, 2% QUAT + 1% borax, 40° C. + ultrasound 10 min each hour
# [16] = test 5.6, 5% QUAT + 1% borax, 40° C. + ultrasound 10 min each hour
# [17] = test 5.7, 2% QUAT + 1% borax + Protease, 40° C. + ultrasound 10 min each hour
# [18] = test 6.1, 2% QUAT + 0.2% Protease (Savinase 16 L), 25° C.
# [19] = test 6.2, 2% QUAT + 0.2% Protease (Savinase 16 L), 40° C.
# [20] = test 6.3, 2% QUAT + 0.2% Protease (Savinase 16 L), 40° C. + 1% borax
# [21] = test 6.4, 2% QUAT + 0.2% Protease (Savinase 16 L), 50° C.
# [22] = test 6.5, 2% QUAT + 0.2% Protease (Savinase 16 L), 50° C. + 1% borax
# [23] = test 6.6, 2% QUAT + 0.2% Protease (Savinase 16 L), 40° C. + ultrasound 10 min each hour + 1% borax
# [24] = test 6.7, 2% QUAT + 1% borax + Protease, 40° C. + ultrasound 10 min each hour
substance,measurement,setting,value
benzalkonium chloride [QUAT],Kill Time C. sporogens,C. sporogens spores; [2],>24 h
same,Kill Time C. sporogens,C. sporogens spores; [3],>48 h
same,C. sporogens (no kill),C. sporogens spores; [3],(no kill) (“No kill” means less than 2 log reduction from the initial population)
same,kill time of C. sporogenes,"C. sporogens spores; above 1% w/w of quat, 40° C.",less than 2 hours
same,Kill Time C. sporogens,"C. sporogens spores; test 1.1, 0.025% QUAT, 25° C.",>24 h
same,Kill Time C. sporogens,"C. sporogens spores; test 1.2, 0.25% QUAT, 25° C.",>24 h
same,Kill Time C. sporogens,"C. sporogens spores; test 2.1, 5% QUAT, 30° C.",<2 h
same,Kill Time C. sporogens,"C. sporogens spores; test 2.2, 1.0% QUAT, 40° C.",<2 h
same,Kill Time C. sporogens,"C. sporogens spores; test 2.3, 2.0% QUAT, 40° C.",<2 h
same,Kill Time C. sporogens,"C. sporogens spores; test 2.4, 5.0% QUAT, 40° C.",<1 h
same,Kill Time C. sporogens,"C. sporogens spores; test 2.5, 1.0% QUAT, 50° C.",<2 h
same,Kill Time C. sporogens,"C. sporogens spores; test 2.6, 2.0% QUAT, 50° C.",<2 h
same,Kill Time C. sporogens,"C. sporogens spores; test 2.7, 5.0% QUAT, 50° C.",<1 h
same,Kill Time C. sporogens,"C. sporogens spores; test 2.7, 5.0% QUAT, 50° C., listed as quat",less than one hour
same,Kill Time C. sporogens,"C. sporogens spores; test 2.8, 1.0% QUAT, 80° C.",<1 h
same,Kill Time C. sporogens,"C. sporogens spores; test 2.8, 1.0% QUAT, 80° C., listed as quat",less than one hour
same,Kill Time C. sporogens,"C. sporogens spores; test 3.1, 0.25% QUAT, 40° C.",>24 h
same,Kill Time C. sporogens,"C. sporogens spores; test 3.2, 0.25% QUAT, 50° C.",>24 h
same,Kill Time C. sporogens,"C. sporogens spores; test 3.3, 0.25% QUAT, 60° C.",>24 h
same,Kill Time C. sporogens,C. sporogens spores; [4],>24 h
same,Kill Time C. sporogens,"C. sporogens spores; test 3.5, 1.0% QUAT, 25° C.",>48 h
same,C. sporogens (no kill),"C. sporogens spores; test 3.5, 1.0% QUAT, 25° C.",(no kill) (“No kill” means less than 2 log reduction from the initial population)
same,Kill Time C. sporogens,"C. sporogens spores; test 3.6, 2.0% QUAT, 25° C.",>48 h
same,C. sporogens (no kill),"C. sporogens spores; test 3.6, 2.0% QUAT, 25° C.",(no kill) (“No kill” means less than 2 log reduction from the initial population)
same,Kill Time C. sporogens,"C. sporogens spores; test 3.7, 5.0% QUAT, 25° C.",>48 h
same,C. sporogens (no kill),"C. sporogens spores; test 3.7, 5.0% QUAT, 25° C.",(no kill) (“No kill” means less than 2 log reduction from the initial population)
same,Kill Time C. sporogens,"C. sporogens spores; test 3.8, 0.6%, 40° C.",>24 h
same,Kill Time C. sporogens,"C. sporogens spores; test 3.9, 0.6% QUAT, 50° C.",<16 h
same,Kill Time C. sporogens,C. sporogens spores; [5],>48 h
same,C. sporogens (no kill),C. sporogens spores; [5],(no kill) (“No kill” means less than 2 log reduction from the initial population)
same,Kill Time C. sporogens,C. sporogens spores; [6],>48 h
same,C. sporogens (no kill),C. sporogens spores; [6],(no kill) (“No kill” means less than 2 log reduction from the initial population)
same,Kill Time C. sporogens,C. sporogens spores; [7],<1 h
same,Kill Time C. sporogens,C. sporogens spores; [8],<1 h
same,Kill Time C. sporogens,C. sporogens spores; [9],<1 h
same,Kill Time C. sporogens,C. sporogens spores; [10],<1 h
same,Kill Time C. sporogens,C. sporogens spores; [11],<1 h
same,Kill Time C. sporogens,"C. sporogens spores; test 5.1, 1% QUAT, 40° C. + ultrasound 10 min each hour",<2 h
same,Kill Time C. sporogens,C. sporogens spores; [12],<1 h
same,Kill Time C. sporogens,C. sporogens spores; [13],<1 h
same,Kill Time C. sporogens,C. sporogens spores; [14],<1 h
same,Kill Time C. sporogens,C. sporogens spores; [15],<1 h
same,Kill Time C. sporogens,C. sporogens spores; [16],<1 h
same,Kill Time C. sporogens,C. sporogens spores; [17],<1 h
same,Kill Time C. sporogens,C. sporogens spores; [18],>48 h
same,C. sporogens (no kill),C. sporogens spores; [18],(no kill) (“No kill” means less than 2 log reduction from the initial population)
same,Kill Time C. sporogens,C. sporogens spores; [19],<1 h
same,Kill Time C. sporogens,C. sporogens spores; [20],<1 h
same,Kill Time C. sporogens,C. sporogens spores; [21],<1 h
same,Kill Time C. sporogens,C. sporogens spores; [22],<1 h
same,Kill Time C. sporogens,C. sporogens spores; [23],<1 h
same,Kill Time C. sporogens,C. sporogens spores; [24],<1 h
same,HLD Or F,[1]; [2],F
same,HLD Or F,[1]; [3],F
same,HLD or F,"[1]; test 1.1, 0.025% QUAT, 25° C.",F
same,HLD or F,"[1]; test 1.2, 0.25% QUAT, 25° C.",F
same,HLD or F,"[1]; test 2.1, 5% QUAT, 30° C.",HLD
same,HLD or F,"[1]; test 2.2, 1.0% QUAT, 40° C.",HLD
same,HLD or F,"[1]; test 2.3, 2.0% QUAT, 40° C.",HLD
same,HLD or F,"[1]; test 2.4, 5.0% QUAT, 40° C.",HLD
same,HLD or F,"[1]; test 2.5, 1.0% QUAT, 50° C.",HLD
same,HLD or F,"[1]; test 2.6, 2.0% QUAT, 50° C.",HLD
same,HLD or F,"[1]; test 2.7, 5.0% QUAT, 50° C.",HLD
same,HLD or F,"[1]; test 2.8, 1.0% QUAT, 80° C.",HLD
same,HLD Or F,"[1]; test 3.1, 0.25% QUAT, 40° C.",F
same,HLD Or F,"[1]; test 3.2, 0.25% QUAT, 50° C.",F
same,HLD Or F,"[1]; test 3.3, 0.25% QUAT, 60° C.",F
same,HLD Or F,[1]; [4],F
same,HLD Or F,"[1]; test 3.5, 1.0% QUAT, 25° C.",F
same,HLD Or F,"[1]; test 3.6, 2.0% QUAT, 25° C.",F
same,HLD Or F,"[1]; test 3.7, 5.0% QUAT, 25° C.",F
same,HLD Or F,"[1]; test 3.8, 0.6%, 40° C.",F
same,HLD Or F,"[1]; test 3.9, 0.6% QUAT, 50° C.",F
same,HLD or F,[1]; [5],F
same,HLD or F,[1]; [6],F
same,HLD or F,[1]; [7],HLD
same,HLD or F,[1]; [8],HLD
same,HLD or F,[1]; [9],HLD
same,HLD or F,[1]; [10],HLD
same,HLD or F,[1]; [11],HLD
same,HLD Or F,[1]; [12],HLD
same,HLD Or F,[1]; [13],HLD
same,HLD Or F,[1]; [14],HLD
same,HLD Or F,[1]; [15],HLD
same,HLD Or F,[1]; [16],HLD
same,HLD Or F,[1]; [17],HLD
same,HLD Or F,[1]; [18],F
same,HLD Or F,[1]; [19],HLD
same,HLD Or F,[1]; [20],HLD
same,HLD Or F,[1]; [21],HLD
same,HLD Or F,[1]; [22],HLD
same,HLD Or F,[1]; [23],HLD
same,HLD Or F,[1]; [24],HLD
